# Test results reported in US11298333B1, “Methods of reducing the risk of cardiovascular events in a subject” (Amarin Pharmaceuticals Ireland Limited, priority 2018, dated 2022).
# System: statin-treated patients with a history of atherosclerosis or diabetes
# Experiment: REDUCE-IT Example 3: total (first and subsequent) ischemic events (negative binomial, Andersen-Gill, Wei-Lin-Weissfeld Li-Lagakos, joint frailty; reduced and full dataset)
# Assay type: in vivo, human
# Design: Relative risk reduction in total (first and subsequent) ischemic events for the primary composite endpoint / First events reduced by / Second events reduced by / Third events reduced by / Fourth or more events reduced by: concentration or dose not given beside the values
# Description: The following study was a multi-center, placebo-controlled clinical trial the details of which are described above in Example 1, the REDUCE-IT design. […] The main outcomes were total primary composite endpoint events defined as cardiovascular death, nonfatal myocardial infarction, nonfatal stroke, coronary revascularization, or hospitalization for unstable angina and total key secondary composite endpoint events defined as cardiovascular death, nonfatal myocardial infarction, or nonfatal stroke. In the context of this study, total events refer to any first event as well as any subsequent event. Differences in total events were determined using other statistical models, including Andersen-Gill, Wei-Lin-Weisfeld (Li and Lagakos), both pre-specified, and a post hoc and joint-frailty analysis.
# For the present prespecified analysis, the primary outcome was the total of first plus subsequent ischemic events consisting of the composite of cardiovascular death, nonfatal myocardial infarction, nonfatal stroke, coronary revascularization, or hospitalization for unstable angina. […] Exploratory analyses of the total of first and subsequent events were also performed for the key secondary composite endpoint.
# Baseline characteristics were compared between treatment groups using the chi-squared test for categorical variables and the Wilcoxon rank sum test for continuous variables. There are several methods for analyzing first and subsequent (recurrent) event data. As a pre-specified statistical method, a negative binomial regression was used to calculate rates and rate ratios for total cardiovascular events, which accounts for the variability in each patient's risk of events. As pre-specified supportive analyses, the modified Wei-Lin-Weissfeld method (Li and Lagakos modification) was used to calculate hazard ratios (HRs) for the time to the first event, second event, or third event. An additional pre-specified analysis, the Andersen-Gill model using a Cox proportional-hazard with the counting-process formulation was performed to model the total events. In addition, in order to account for informative censoring due to cardiovascular death, the HR for total non-fatal events was calculated using a joint frailty model (See Rondeau V. Joint frailty models for recurring events and death using maximum penalized likelihood estimation: application on cancer events. Biostatistics. 2007; 8:708-21). The joint frailty model simultaneously estimates hazard functions for non-fatal and fatal CV events and takes into account the fact that patients who are prone to have nonfatal events have an elevated risk of a cardiovascular death. The application of the joint frailty model used a gamma distribution for the frailty term.
# Statistical analyses using the full adjudicated endpoint events dataset without exclusions using this bundling approach were also determined.
# [1] = Andersen-Gill (I), full dataset, adjusted for stratification factors, vs placebo
# [2] = Andersen-Gill (I), full dataset, vs placebo
# [3] = Andersen-Gill (I), reduced dataset, adjusted for stratification factors, vs placebo
# [4] = Andersen-Gill (I), reduced dataset, vs placebo
# [5] = Andersen-Gill (II), full dataset, adjusted for stratification factors, vs placebo
# [6] = Andersen-Gill (II), full dataset, vs placebo
# [7] = Andersen-Gill (II), reduced dataset, adjusted for stratification factors, vs placebo
# [8] = Andersen-Gill (II), reduced dataset, vs placebo
# [9] = Wei-Lin-Weissfeld model (Li and Lagakos)
# [10] = modified WLW, full dataset, adjusted for stratification factors, vs placebo
# [11] = modified WLW, full dataset, vs placebo
# [12] = negative binomial, full dataset, adjusted for stratification factors, vs placebo
# [13] = negative binomial, full dataset, vs placebo
# [14] = negative binomial, reduced dataset, adjusted for stratification factors, vs placebo
# [15] = negative binomial, reduced dataset, vs placebo
# [16] = number of events, icosapent ethyl arm N = 4089, full dataset
# [17] = number of events, after reduction
# [18] = number of events, multiple endpoints in a single calendar day handled as a single event
# [19] = share of overall events in the category, after reduction
smiles,measurement,setting,value
"CC/C=C\C/C=C\C/C=C\C/C=C\C/C=C\CCCC(=O)OCC [Icosapent Ethyl, eicosapentaenoic acid ethyl ester]","Adjusted HR, key secondary composite endpoint",[1],0.71
same,"Adjusted HR, primary composite endpoint",[1],0.68
same,"Unadjusted HR, key secondary composite endpoint",[2],0.71
same,"Unadjusted HR, primary composite endpoint",[2],0.68
same,"Adjusted HR, total key secondary composite endpoint events",[3],0.72
same,"Adjusted HR, total primary composite endpoint events",[3],0.69
same,"Unadjusted HR, total key secondary composite endpoint events",[4],0.72
same,"Unadjusted HR, total primary composite endpoint events",[4],0.69
same,"Adjusted HR, key secondary composite endpoint",[5],0.71
same,"Adjusted HR, primary composite endpoint",[5],0.68
same,"Unadjusted HR, key secondary composite endpoint",[6],0.71
same,"Unadjusted HR, primary composite endpoint",[6],0.68
same,"Adjusted HR, total key secondary composite endpoint events",[7],0.72
same,"Adjusted HR, total primary composite endpoint events",[7],0.69
same,"Unadjusted HR, total key secondary composite endpoint events",[8],0.72
same,"Unadjusted HR, total primary composite endpoint events",[8],0.69
same,Cardiovascular deaths prevented per 1000 patients treated for five years,FIG. 38,12
same,Coronary revascularizations prevented per 1000 patients treated for five years,FIG. 38,76
same,Episodes of hospitalization for unstable angina prevented per 1000 patients treated for five years,FIG. 38,16
same,Myocardial infarctions prevented per 1000 patients treated for five years,FIG. 38,42
same,Strokes prevented per 1000 patients treated for five years,FIG. 38,14
same,First occurrence of primary composite endpoint: HR vs placebo,[9],0.75
same,Second occurrence of primary composite endpoint: HR vs placebo,[9],0.68
same,First events reduced by,in vivo,25%
same,Fourth or more events reduced by,in vivo,48%
same,Relative risk reduction in total (first and subsequent) ischemic events for the primary composite endpoint,in vivo,30%
same,Second events reduced by,in vivo,32%
same,Third events reduced by,in vivo,31%
same,"Adjusted HR, key secondary composite endpoint, first event",[10],0.74
same,"Adjusted HR, key secondary composite endpoint, second event",[10],0.75
same,"Adjusted HR, key secondary composite endpoint, third event",[10],0.79
same,"Adjusted HR, primary composite endpoint, first event",[10],0.75
same,"Adjusted HR, primary composite endpoint, second event",[10],0.68
same,"Adjusted HR, primary composite endpoint, third event",[10],0.70
same,"Unadjusted HR, key secondary composite endpoint, first event",[11],0.74
same,"Unadjusted HR, key secondary composite endpoint, second event",[11],0.75
same,"Unadjusted HR, key secondary composite endpoint, third event",[11],0.79
same,"Unadjusted HR, primary composite endpoint, first event",[11],0.76
same,"Unadjusted HR, primary composite endpoint, second event",[11],0.69
same,"Unadjusted HR, primary composite endpoint, third event",[11],0.70
same,Total key secondary endpoint events: rate ratio (RR) vs placebo,negative binomial model,0.72
same,Total primary endpoint events: rate ratio (RR) vs placebo,negative binomial model,0.70
same,"Adjusted RR, key secondary composite endpoint",[12],0.71
same,"Adjusted RR, primary composite endpoint",[12],0.69
same,"Unadjusted RR, key secondary composite endpoint",[13],0.71
same,"Unadjusted RR, primary composite endpoint",[13],0.67
same,"Adjusted RR, total key secondary composite endpoint events",[14],0.72
same,"Adjusted RR, total primary composite endpoint events",[14],0.70
same,"Unadjusted RR, total key secondary composite endpoint events",[15],0.71
same,"Unadjusted RR, total primary composite endpoint events",[15],0.68
same,"Total events before reduction, key secondary endpoint",[16],590 n
same,"Total events before reduction, primary endpoint",[16],1185 n
same,"Fatal events, key secondary endpoint",[17],174 n
same,"Fatal events, primary endpoint",[17],174 n
same,"Non-fatal events, key secondary endpoint",[17],384 n
same,"Non-fatal events, primary endpoint",[17],902 n
same,"Total events after reduction, key secondary endpoint",[18],558 n
same,"Total events after reduction, primary endpoint",[18],1076 n
same,"Fatal events, key secondary endpoint",[19],45.0%
same,"Fatal events, primary endpoint",[19],45.0%
same,"Total events after reduction, primary endpoint",[19],41.0%
same,"Total events before reduction, key secondary endpoint","share of overall events in the category, icosapent ethyl arm N = 4089",42.0%
